Results taken from patent US20110039762A1, “TARGETED ANTIMICROBIAL MOIETIES” (C3 JIAN, INC., priority 2009, published 2011).
Entries after “also recorded” stand apart in the source; their conditions may differ. Ends that are not written are not given here.

Legend:
microorganisms = assay: Peptides having multiple activities (targeting/binding, antimicrobial, growth or phenotype altering)
From the text: In certain embodiments, peptides described herein can have multiple activities. Thus for example, a peptide can have both binding/targeting activity and antimicrobial activity. Such peptides can be used, e.g., in a chimeric construct, for any or all of these properties. Thus, for example, a peptide designated “B” in Table 8 can be used as a targeting peptide. If it is also designated G or M it can also be used for antimicrobial activity.

S. pneumoniae [1] = assay: MIC (broth microdilution); type: cell-based, Streptococcus pneumoniae
Method: (§1) Typically, the in vitro antimicrobial activity of antimicrobial agents is tested using standard NCCLS bacterial inhibition assays, or MIC tests (see, National Committee on Clinical Laboratory Standards “Performance Standards for Antimicrobial Susceptibility Testing,” NCCLS Document M100-S5 Vol. 14, No. 16, December 1994; “Methods for dilution antimicrobial susceptibility test for bacteria that grow aerobically-Third Edition,” Approved Standard M7-A3, National Committee for Clinical Standards, Villanova, Pa.).
(§2) Briefly, ˜1×10^5 cfu/mL bacteria were diluted in TH (S. mutans), or Mueller-Hinton (MH) broth (all other organisms) and distributed to 96-well plates. Serially-diluted (2-fold) peptides were then added and the plates incubated at 37° C. for 18-24 h. […] All experiments were conducted 10 times.

[2] = system: microorganisms (e.g., bacteria, yeasts, fungi); assay: Targeting peptide binding to target microorganisms (Table 3); settings: preferably 1x PBS; for Target(s): microorganism(s) the targeting peptide binds
S. pneumoniae [3] = assay: Kill or inhibit growth/proliferation; morphology, biofilm and growth disruption (Tables 5, 6); type: cell-based, Streptococcus pneumoniae; design: key: A: Peptide aggregates; B: Less hyphal formation; Clumps; Diffuse clumps and small polyps; F: Diffuse growth; H: Thin; I: Growth inhibition; Microcolony formation; Rippled; Small polyps; Thick; W: Halo formation on top, microlonies on bottom; further: test concentration or dose not given here
S. epidermidis = assay: as above; type: cell-based, Staphylococcus epidermidis; design: key: A: Peptide aggregates; B: Less hyphal formation; Clumps; Diffuse clumps and small polyps; F: Diffuse growth; H: Thin; I: Growth inhibition; Microcolony formation; Rippled; Small polyps; Thick; W: Halo formation on top, microlonies on bottom; further: test concentration or dose not given here
B. subtilis [4] = assay: as above; type: cell-based, Bacillus subtilis; design: key: A: Peptide aggregates; B: Less hyphal formation; Clumps; Diffuse clumps and small polyps; F: Diffuse growth; H: Thin; I: Growth inhibition; Microcolony formation; Rippled; Small polyps; Thick; W: Halo formation on top, microlonies on bottom
B. subtilis [5] = assay: MIC (broth microdilution); type: cell-based, Bacillus subtilis
Method: as §1, §2

A. niger = assay: MIC (broth microdilution); type: cell-based, Aspergillus niger
Method: as §1, §2

P. aeruginosa = assay: Kill or inhibit growth/proliferation; morphology, biofilm and growth disruption (Tables 5, 6); type: cell-based, Pseudomonas aeruginosa; design: key: A: Peptide aggregates; B: Less hyphal formation; Clumps; Diffuse clumps and small polyps; F: Diffuse growth; H: Thin; I: Growth inhibition; Microcolony formation; Rippled; Small polyps; Thick; W: Halo formation on top, microlonies on bottom; further: test concentration or dose not given here
MRSA [6] = assay: MIC (broth microdilution); type: cell-based, Methicillin-resistant Staphylococcus aureus
Method: as §1, §2

MRSA [7] = assay: Kill or inhibit growth/proliferation; morphology, biofilm and growth disruption (Tables 5, 6); type: cell-based, Methicillin-resistant Staphylococcus aureus; design: key: A: Peptide aggregates; B: Less hyphal formation; Clumps; Diffuse clumps and small polyps; F: Diffuse growth; H: Thin; I: Growth inhibition; Microcolony formation; Rippled; Small polyps; Thick; W: Halo formation on top, microlonies on bottom; further: test concentration or dose not given here
E. coli = assay: as above; type: cell-based, Escherichia coli; design: key: A: Peptide aggregates; B: Less hyphal formation; Clumps; Diffuse clumps and small polyps; F: Diffuse growth; H: Thin; I: Growth inhibition; Microcolony formation; Rippled; Small polyps; Thick; W: Halo formation on top, microlonies on bottom; further: test concentration or dose not given here
E. faecalis = assay: as above; type: cell-based, Enterococcus faecalis; design: key: A: Peptide aggregates; B: Less hyphal formation; Clumps; Diffuse clumps and small polyps; F: Diffuse growth; H: Thin; I: Growth inhibition; Microcolony formation; Rippled; Small polyps; Thick; W: Halo formation on top, microlonies on bottom; further: test concentration or dose not given here
F. nucleatum = assay: as above; type: cell-based, Fusobacterium nucleatum; design: key: A: Peptide aggregates; B: Less hyphal formation; Clumps; Diffuse clumps and small polyps; F: Diffuse growth; H: Thin; I: Growth inhibition; Microcolony formation; Rippled; Small polyps; Thick; W: Halo formation on top, microlonies on bottom; further: test concentration or dose not given here
S. mutans = assay: as above; type: cell-based, Streptococcus mutans; design: key: A: Peptide aggregates; B: Less hyphal formation; Clumps; Diffuse clumps and small polyps; F: Diffuse growth; H: Thin; I: Growth inhibition; Microcolony formation; Rippled; Small polyps; Thick; W: Halo formation on top, microlonies on bottom; further: test concentration or dose not given here
M. luteus = assay: as above; type: cell-based, Micrococcus luteus; design: key: A: Peptide aggregates; B: Less hyphal formation; Clumps; Diffuse clumps and small polyps; F: Diffuse growth; H: Thin; I: Growth inhibition; Microcolony formation; Rippled; Small polyps; Thick; W: Halo formation on top, microlonies on bottom; further: test concentration or dose not given here
C. jejuni = assay: as above; type: cell-based, Campylobacter jejuni; design: key: A: Peptide aggregates; B: Less hyphal formation; Clumps; Diffuse clumps and small polyps; F: Diffuse growth; H: Thin; I: Growth inhibition; Microcolony formation; Rippled; Small polyps; Thick; W: Halo formation on top, microlonies on bottom; further: test concentration or dose not given here
C. jeikeium = assay: as above; type: cell-based, Corynebacterium jeikeium; design: key: A: Peptide aggregates; B: Less hyphal formation; Clumps; Diffuse clumps and small polyps; F: Diffuse growth; H: Thin; I: Growth inhibition; Microcolony formation; Rippled; Small polyps; Thick; W: Halo formation on top, microlonies on bottom; further: test concentration or dose not given here
C. albicans = assay: as above; type: cell-based, Candida albicans; design: key: A: Peptide aggregates; B: Less hyphal formation; Clumps; Diffuse clumps and small polyps; F: Diffuse growth; H: Thin; I: Growth inhibition; Microcolony formation; Rippled; Small polyps; Thick; W: Halo formation on top, microlonies on bottom; further: test concentration or dose not given here
[8] = peptide binding conducted in aqueous buffers varied by peptide solubility
Wherever Organism, effect is given: test concentration or dose not given here.

| Substance | Activities (microorganisms) | MIC (S. pneumoniae [1]) | Target(s) [2, 8] | Organism, effect (S. pneumoniae [3]) | also measured |
| --- | --- | --- | --- | --- | --- |
| ASKQASKQASKQASKQASKQASRSLKNHLL [PF-523] | B M | S. pneumoniae, 50 μM | S. epidermidis; also recorded: M. luteus; also recorded: C. albicans; also recorded: S. pneumoniae; also recorded: C. jeikeium; also recorded: C. jejuni |  |  |
| CGKLLEQKNFFLKTR [PF-521] | G B M | S. pneumoniae, 50 μM | S. epidermidis; also recorded: E. coli; also recorded: P. aeruginosa; also recorded: S. pneumoniae; also recorded: E. faecalis | S. pneumoniae (H) |  |
| FQKPFTGEEVEDFQDDDEIPTII [PF-437] | G M | S. pneumoniae, 50 μM |  | S. pneumoniae (I) |  |
| GIVLIGLKLIPLLANVLR [PF-322] | G M |  |  |  | Organism, effect (S. epidermidis): S. epidermidis (C); Organism, effect (B. subtilis [4]): B. subtilis (H); MIC (B. subtilis [5]): B. subtilis, 50 μM |
| KFSDQIDKGQDALKDKLGDL [PF-525] | G M | S. pneumoniae, 50 μM |  | S. pneumoniae (H) | MIC (A. niger): A. niger, 50 μM |
| LGLTAGVAYAAQPTNQPTNQPTNQPTNQPTNQPTNQPRW-NH2 [PF-520] | G B M | S. pneumoniae, 50 μM |  | S. pneumoniae (M) |  |
| LSEMERRRLRKRA-NH2 [PF-529] | G B M | S. pneumoniae, 50 μM | S. epidermidis and E. coli and C. albicans and MRSA and S. pneumoniae and E. faecalis and C. jeikeium | S. pneumoniae (H) | MIC (A. niger): A. niger, 50 μM |
| LVLRICTDLFTFIKWTIKQRKS [PF-497] | B M |  | S. mutans; also recorded: B. subtilis; also recorded: E. coli |  | MIC (B. subtilis [5]): B. subtilis, 50 μM |
| NYAVVSHT [PF-209] | G B M |  |  |  | Organism, effect (S. epidermidis): S. epidermidis (C); Organism, effect (P. aeruginosa): P. aeruginosa (H); MIC (MRSA [6]): MRSA , 50 μM; Organism, effect (MRSA [7]): MRSA (I); Target(s) ([2]; binding in aqueous buffers depending on peptide solubility): C. albicans; also recorded: C. jeikeium; also recorded: C. jejuni |
| PDAPRTCYHKPILAALSRIVVTDR [PF-524] | G B M | S. pneumoniae, 50 μM | S. epidermidis and E. coli and P. aeruginosa and C. albicans and MRSA and S. pneumoniae and E. faecalis and C. jeikeium | S. pneumoniae (M) | Organism, effect (E. coli): E. coli (M); Organism, effect (E. faecalis): E. faecalis (C); Organism, effect (MRSA [7]): MRSA (C) |
| PF-C291: peptide having multiple activities (HPFLTGTGCPLFLIFRLFFVKAYFSFTVF; Peptide with targeting and/or antimicrobial activity) | G B |  |  |  | Organism, effect (morphology, biofilm and growth disruption) (F. nucleatum): F. nucleatum (T); Organism, effect (morphology, biofilm and growth disruption) (S. mutans): S. mutans (F); Target(s) (microorganisms bound by the targeting peptide) ([2]; peptide binding in aqueous buffers varied by peptide solubility): A. naeslundii; also recorded: F. nucleatum; also recorded: P. gingivalis; also recorded: S. mutans |
| RRGCTERLRRMARRNAWDLYAEHFY [PF-148] | G B M |  |  | S. pneumoniae (R) | MIC (A. niger): A. niger, 50 μM; Organism, effect (S. epidermidis): S. epidermidis (D); Organism, effect (B. subtilis [4]): B. subtilis (I); Organism, effect (M. luteus): M. luteus (A); Organism, effect (C. jejuni): C. jejuni (H); Organism, effect (C. jeikeium): C. jeikeium (H); Organism, effect (C. albicans): C. albicans (B); Organism, effect (MRSA [7]): MRSA (C); MIC (B. subtilis [5]): B. subtilis, 50 μM |
| SFMPEIQKNTIPTQMK [PF-512] | G B M | S. pneumoniae, 50 μM | S. pneumoniae; also recorded: C. jeikeium | S. pneumoniae (H) |  |
| SLQSQLGPCLHDQRH [PF-448] | G B M | S. pneumoniae, 50 μM | S. epidermidis; also recorded: M. luteus; also recorded: P. mirabilis; also recorded: E. coli; also recorded: S. pneumoniae; also recorded: E. faecalis; also recorded: C. jeikeium; also recorded: C. jejuni | S. pneumoniae (I) | MIC (A. niger): A. niger, 25 μM |
| VMQSLYVKPPLILVTKLAQQN [PF-511] | G B M | S. pneumoniae, 50 μM | E. coli; also recorded: P. aeruginosa; also recorded: S. pneumoniae; also recorded: C. jeikeium | S. pneumoniae (H) |  |
| VYSFLYVLVIVRKLLSMKKRIERL [PF-499] | B M |  | S. mutans; also recorded: E. coli |  | MIC (B. subtilis [5]): B. subtilis, 50 μM |
